# Reference: patent US6355630B1, “Estra-1,3,5(10)-triene-7α-thioethers” (priority 1997, dated 2002)
# Where a name gives a salt, the structure may show the parent alone. Read-outs that look alike come from different tables or passages of the source.
# Columns and labels:
# rat uterus = experiment: Rat uterotrophic/antiuterotrophic test procedure; type: in vivo; settings: for Uterine wet weight: daily ip, 4-day immature rat
# Experimental: Rat Uterotrophic/Antiuterotrophic Test Procedure
# The estrogenic and antiestrogenic properties of the compounds were determined in a 4-day immature rat uterotrophic assay (as described previously by L. J. Black and R. L. Goode, Life Sciences, 26, 1453 (1980)). Immature Sprague-Dawley rats (female, 18 days old) were tested in groups of six. […] On day 4 the animals were sacrificed by CO2 asphyxiation and their uteri were removed and stripped of excess lipid, any fluid removed and the wet weight determined. A small section of one horn was submitted for histology and the remainder used to isolate total RNA in order to evaluate complement component 3 gene expression.
# Representative compounds of this invention were evaluated in the rat uterotrophic/antiuterotrophic assay to determine their in vivo effects on the rat uterus.
# human estrogen receptor = target: T1, human estrogen receptor (Homo sapiens, UniProt P03372); experiment: In vitro estrogen receptor binding test procedure ([3H]-17β-estradiol competition)
# T1 construct: expressed in transfected cells; host or cells: Chinese Hamster ovary (CHO) cells; ribosome-free cytosol
# T1 sequence (P03372 1-595): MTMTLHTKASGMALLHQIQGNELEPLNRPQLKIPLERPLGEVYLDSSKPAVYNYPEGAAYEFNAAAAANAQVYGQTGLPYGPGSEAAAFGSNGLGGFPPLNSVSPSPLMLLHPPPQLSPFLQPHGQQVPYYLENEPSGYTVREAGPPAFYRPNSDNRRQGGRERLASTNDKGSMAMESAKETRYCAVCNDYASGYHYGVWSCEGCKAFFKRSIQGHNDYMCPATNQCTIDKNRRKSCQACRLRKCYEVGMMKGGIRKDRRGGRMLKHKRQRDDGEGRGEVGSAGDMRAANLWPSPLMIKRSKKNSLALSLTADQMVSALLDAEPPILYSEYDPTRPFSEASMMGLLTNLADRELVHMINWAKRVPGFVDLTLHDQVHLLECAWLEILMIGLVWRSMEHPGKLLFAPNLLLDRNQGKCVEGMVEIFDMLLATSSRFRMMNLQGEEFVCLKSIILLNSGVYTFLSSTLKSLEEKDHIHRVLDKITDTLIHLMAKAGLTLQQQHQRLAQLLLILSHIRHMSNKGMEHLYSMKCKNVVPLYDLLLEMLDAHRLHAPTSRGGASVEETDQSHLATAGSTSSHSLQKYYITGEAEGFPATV
# Experimental: In vitro Estrogen Receptor Binding Test Procedure
# Chinese Hamster ovary (CHO) cells overexpressing the estrogen receptor were grown in […] dishes in DMEM+10% dextran coated charcoal, stripped fetal bovine serum. The plates were washed twice with PBS and once with 10 mM Tris-HCl, pH 7.4, 1 mM EDTA. Cells were harvested by scraping the surface and then the cell suspension was placed on ice. Cells were disrupted with a hand-held motorized tissue grinder using two, 10-second bursts. The crude preparation was centrifuged at 12,000 g for 20 minutes followed by a 60 minute spin at 100,000 G to produce a ribosome free cytosol. The cytosol was then frozen and stored at −80° C. Protein concentration of the cytosol was estimated using the BCA assay with reference standard protein.
# Binding Test Procedure Conditions
# 100 uG/100 uL of the receptor preparation was aliquoted per well. […] The plate was incubated at room temperature for 2.5 h. At the end of this incubation period 150 uL of ice-cold dextran coated charcoal (5% activated charcoal coated with 0.05% 69K dextran) was added to each well and the plate was immediately centrifuged at 99 g for 5 minutes at 4° C. 200 uL of the supernatant solution was then removed for scintillation counting. Samples were counted to 2% or 10 minutes, whichever occurs first. […] Also, wells containing radioactivity but no cytosol were processed with charcoal to estimate unremovable DPM of [^3H] […] 96-well plates were used because they have proven to bind the least amount of estradiol.
# Counts per minute (CPM) of radioactivity were automatically converted to disintegrated per minute (DPM) by the Beckman LS 7500 Scintillation Counter using a set of quenched standards to generate a H# for each sample. To calculate the % of estradiol binding in the presence of 100 or 500 fold competitor the following formula was applied:
# ((DPM sample−DPM not removed by charcoal/(DPM estradiol−DPM not removed by charcoal))×100%=% of estradiol binding
# For the generation of IC50 curves, % binding is plotted vs compound. […] Values are reported as IC50 values. […] For a description of these methods, see Hulme, E. C., ed. 1992. Receptor-Ligand Interactions: A Practical Approach. IRL Press, New York.(see especially chapter 8).
# Compounds were tested for their ability to displace estradiol in a human ER-receptor preparation as described above.
# Ishikawa uterine cells = experiment: Ishikawa cell alkaline phosphatase test procedure; type: cell-based, human; settings: for Alkaline phosphatase activity, percent of response related to 1 nM 17β-estradiol: 48 h
# Experimental: Ishikawa Cell Alkaline Phosphatase Test Procedure
# Cell Maintenance and Treatment
# Ishikawa cells were maintained in DMEM/F12 (50%:50%) containing phenol red+10% fetal bovine serum and the medium was supplemented with 2 mM Glutamax, 1% Pen/Strap and 1 mM sodium pyruvate. Five days prior to the beginning of each evaluation (treatment of cells) the medium was changed to phenol red-free DMEM/F12+10% dextran coated charcoal stripped serum. On the day before treatment, cells were harvested using 0.5% trypsin/EDTA and plated at a density of 5×10^4 cells/well in 96-well tissue culture plates. […] Cells were treated for 48 h prior to assay. […] Sample population for at each dose was n=8.
# Alkaline Phosphatase Test Procedure
# At the end of 48 h the media was aspirated and cells were washed three times with phosphate buffered saline (PBS); 50 μL of lysis buffer (0.1 M Tris-HCl, pH 9.8, 0.2% Triton X-100) was added to each well. Plates were placed at −80° C. for a minimum of 15 minutes. Plates were thawed at 37° C. followed by the addition of 150 μL of 0.1 M Tris-HCl, pH 9.8, containing 4 mM para-nitrophenylphosphate (pNPP) to each well (final concentration, 3 mM pNPP).
# Absorbance and slope calculations were made using the KineticCalc Application program (Bio-Tek Instruments, Inc., Winooski, Vt.). Results are expressed as the mean +/−S.D. of the rate of enzyme reaction (slope) averaged over the linear portion of the kinetic reaction curve (optical density readings every 5 minutes for 30 minutes absorbance reading).
# The four compounds were used as reference standards:
# A description of these methods is described by Holinka, C. F., Hata, H., Kuramoto, H. and Gurpide, E. (1986) Effects of steroid hormones and antisteroids on alkaline phosphatase activity in human endometrial cancer cells (Ishikawa Line). Cancer Research, 46:2771-2774, and by Littlefield, B. A., Gurpide, E., Markiewicz, L., McKinley, B. and Hochberg, R. B. (1990) A simple and sensitive microtiter plate estrogen bioassay based on stimulation alkaline phosphatase in Ishikawa cells; Estrogen action of D5 adrenal steroids. Endocrinology, 6:2757-2762.
# [1] = 1 uM compound + 1 nM E2, antagonist mode
smiles,measurement,setting,value
"CC12CCC3c4ccc(O)cc4CC(Sc4ccc(-c5ccc(C=CC(=O)O)cc5)cc4)C3C1CCC2O (stereo not drawn) [Example 13, (7α,17β) 7-{4-[4′-(2-Carboxy)-ethenyl]biphenyl}thio-estra-1,3,5(10)-triene-3,17-diol sodium salt]",Uterine wet weight,rat uterus; 1 ug Cpd,48.0 mg
same,Uterine wet weight,rat uterus; 100 ug Cpd,55.8 mg
same,IC50,human estrogen receptor; read-out: Receptor IC50,400 nM
same,"Alkaline phosphatase activity, percent of response related to 1 nM 17β-estradiol","Ishikawa uterine cells; 0.01 uM compound, agonist mode",11%
same,"Alkaline phosphatase activity, percent of response related to 1 nM 17β-estradiol","Ishikawa uterine cells; 0.1 uM compound, agonist mode",72%
same,"Alkaline phosphatase activity, percent of response related to 1 nM 17β-estradiol",Ishikawa uterine cells; [1],101%
same,"Alkaline phosphatase activity, percent of response related to 1 nM 17β-estradiol","Ishikawa uterine cells; 1 uM compound, agonist mode",95%
"C[C@]12CC[C@@H]3c4ccc(O)cc4C(=O)[C@@H](Sc4ccc(O)cc4)[C@H]3[C@@H]1CC[C@@H]2O [Example 2, (7α,17β) 3,17-Dihydroxy-7-(4-hydroxyphenyl)thio-estra-1,3,5(10)-triene-6-one]",Uterine wet weight,rat uterus; 1 ug Cpd,39.4 mg
same,Uterine wet weight,rat uterus; 100 ug Cpd,83.1 mg
same,IC50,human estrogen receptor; read-out: Receptor IC50,2500 nM
same,"Alkaline phosphatase activity, percent of response related to 1 nM 17β-estradiol","Ishikawa uterine cells; 0.01 uM compound, agonist mode",7%
same,"Alkaline phosphatase activity, percent of response related to 1 nM 17β-estradiol","Ishikawa uterine cells; 0.1 uM compound, agonist mode",14%
same,"Alkaline phosphatase activity, percent of response related to 1 nM 17β-estradiol",Ishikawa uterine cells; [1],87%
same,"Alkaline phosphatase activity, percent of response related to 1 nM 17β-estradiol","Ishikawa uterine cells; 1 uM compound, agonist mode",42%
"C[C@]12CC[C@@H]3c4ccc(O)cc4C[C@@H](Sc4ccc(Br)cc4)[C@H]3[C@@H]1CC[C@@H]2O [Example 8, (7α,17β) 7-(4-Bromophenyl)thio-estra-1,3,5(10)-triene-3,17-diol]",Uterine wet weight,rat uterus; 1 ug Cpd,35.8 mg
same,Uterine wet weight,rat uterus; 100 ug Cpd,64.7 mg
same,IC50,human estrogen receptor; read-out: Receptor IC50,800 nM
same,"Alkaline phosphatase activity, percent of response related to 1 nM 17β-estradiol","Ishikawa uterine cells; 0.01 uM compound, agonist mode",29%
same,"Alkaline phosphatase activity, percent of response related to 1 nM 17β-estradiol","Ishikawa uterine cells; 0.1 uM compound, agonist mode",59%
same,"Alkaline phosphatase activity, percent of response related to 1 nM 17β-estradiol",Ishikawa uterine cells; [1],95%
same,"Alkaline phosphatase activity, percent of response related to 1 nM 17β-estradiol","Ishikawa uterine cells; 1 uM compound, agonist mode",92%
"C[C@]12CC[C@@H]3c4ccc(O)cc4C[C@@H](Sc4ccc(O)cc4)[C@H]3[C@@H]1CC[C@@H]2O [Example 4, (7α,17β) 7-(4-Hydroxyphenyl)thio-estra-1,3,5(10)-triene-3,17-diol]",Uterine wet weight,rat uterus; 1 ug Cpd,37.9 mg
same,Uterine wet weight,rat uterus; 100 ug Cpd,45.4 mg
same,IC50,human estrogen receptor; read-out: Receptor IC50,300 nM
same,"Alkaline phosphatase activity, percent of response related to 1 nM 17β-estradiol","Ishikawa uterine cells; 0.01 uM compound, agonist mode",7%
same,"Alkaline phosphatase activity, percent of response related to 1 nM 17β-estradiol","Ishikawa uterine cells; 0.1 uM compound, agonist mode",47%
same,"Alkaline phosphatase activity, percent of response related to 1 nM 17β-estradiol",Ishikawa uterine cells; [1],6%
same,"Alkaline phosphatase activity, percent of response related to 1 nM 17β-estradiol","Ishikawa uterine cells; 1 uM compound, agonist mode",57%
"COC(=O)C=Cc1ccc(S[C@@H]2Cc3cc(O)ccc3[C@H]3CC[C@]4(C)[C@@H](OC(C)=O)CC[C@H]4[C@@H]32)cc1 [Example 9, (7α,17β) 7-{4-[2-(Methoxycarbonyl)-ethenyl]phenyl}thio-estra-1,3,5(10)-triene-3,17-diol-17-acetate]",Receptor IC50,"human estrogen receptor; displacement of [3H]17β-estradiol, CHO cell cytosol ER preparation",No Binding
same,Competition for the human estrogen receptor,"human estrogen receptor; in words, compounds with 17β-acetate",competed less effectively
same,"Alkaline phosphatase activity, percent of response related to 1 nM 17β-estradiol","Ishikawa uterine cells; 0.01 uM compound, agonist mode",1%
same,"Alkaline phosphatase activity, percent of response related to 1 nM 17β-estradiol","Ishikawa uterine cells; 0.1 uM compound, agonist mode",33%
same,"Alkaline phosphatase activity, percent of response related to 1 nM 17β-estradiol",Ishikawa uterine cells; [1],59%
same,"Alkaline phosphatase activity, percent of response related to 1 nM 17β-estradiol","Ishikawa uterine cells; 1 uM compound, agonist mode",61%
"CCCCN(C)C(=O)CCCCCCCCCCS[C@@H]1Cc2cc(O)ccc2[C@H]2CC[C@]3(C)[C@@H](O)CC[C@H]3[C@@H]21 [Example 18, (7α,17β) 7-[10-(N-Butyl-N-methyl-carbamoyl)-decyl]thio-estra-1,3,5(10)-triene-3,17-diol]",Uterine wet weight,rat uterus; 1 ug Cpd,31.8 mg
same,Uterine wet weight,rat uterus; 1 ug E2 + 100 ug Cpd,46.0 mg
same,Uterine wet weight,rat uterus; 100 ug Cpd,41.6 mg
same,Effect on rat uterus (agonist/antagonist),"rat uterus; in words, dosed alone or with 17β-estradiol",very efficacious antagonist
same,IC50,human estrogen receptor,100 nM
same,"Alkaline phosphatase activity, percent of response related to 1 nM 17β-estradiol","Ishikawa uterine cells; 0.01 uM compound, agonist mode",0%
same,"Alkaline phosphatase activity, percent of response related to 1 nM 17β-estradiol","Ishikawa uterine cells; 0.1 uM compound, agonist mode",0%
same,"Alkaline phosphatase activity, percent of response related to 1 nM 17β-estradiol",Ishikawa uterine cells; [1],1%
same,"Alkaline phosphatase activity, percent of response related to 1 nM 17β-estradiol","Ishikawa uterine cells; 1 uM compound, agonist mode",0%
same,Behaviour in the uterine cell line (agonist/antagonist),"Ishikawa uterine cells; in words, from Table 2",pure estrogen antagonists
"C[C@]12CC[C@@H]3c4ccc(O)cc4C[C@@H](Sc4ccc(C=CC(=O)O)cc4)[C@H]3[C@@H]1CC[C@@H]2O [Example 11, (7α,17β) 7-{4-[2-(Carboxy)-ethenyl]phenyl}thio-estra-1,3,5(10)-triene-3,17-diol]",IC50,human estrogen receptor,1500 nM
same,"Alkaline phosphatase activity, percent of response related to 1 nM 17β-estradiol","Ishikawa uterine cells; 0.01 uM compound, agonist mode",0%
same,"Alkaline phosphatase activity, percent of response related to 1 nM 17β-estradiol","Ishikawa uterine cells; 0.1 uM compound, agonist mode",23%
same,"Alkaline phosphatase activity, percent of response related to 1 nM 17β-estradiol",Ishikawa uterine cells; [1],50%
same,"Alkaline phosphatase activity, percent of response related to 1 nM 17β-estradiol","Ishikawa uterine cells; 1 uM compound, agonist mode",21%
